Test results taken from patent publication US5496805A, “Inhibitors of neutral endopeptidase” (priority 1990, dated 1996).
Where a name gives a salt, the structure may show the parent alone. Square brackets hold non-standard residues; d marks the D form. Peptide text beside a SMILES is read from it. Mpa = O=C(O)CCS

The compounds below were run against T1, neutral endopeptidase (Rattus norvegicus, UniProt P07861) (assay: biochemical). Settings: enzyme purified from rat kidney; Dns-Gly-Phe-Arg 0.5 mM; pH 7.5; 37°, 30 minutes; inhibitor preincubated 10 minutes.
T1 sequence (P07861 1-750): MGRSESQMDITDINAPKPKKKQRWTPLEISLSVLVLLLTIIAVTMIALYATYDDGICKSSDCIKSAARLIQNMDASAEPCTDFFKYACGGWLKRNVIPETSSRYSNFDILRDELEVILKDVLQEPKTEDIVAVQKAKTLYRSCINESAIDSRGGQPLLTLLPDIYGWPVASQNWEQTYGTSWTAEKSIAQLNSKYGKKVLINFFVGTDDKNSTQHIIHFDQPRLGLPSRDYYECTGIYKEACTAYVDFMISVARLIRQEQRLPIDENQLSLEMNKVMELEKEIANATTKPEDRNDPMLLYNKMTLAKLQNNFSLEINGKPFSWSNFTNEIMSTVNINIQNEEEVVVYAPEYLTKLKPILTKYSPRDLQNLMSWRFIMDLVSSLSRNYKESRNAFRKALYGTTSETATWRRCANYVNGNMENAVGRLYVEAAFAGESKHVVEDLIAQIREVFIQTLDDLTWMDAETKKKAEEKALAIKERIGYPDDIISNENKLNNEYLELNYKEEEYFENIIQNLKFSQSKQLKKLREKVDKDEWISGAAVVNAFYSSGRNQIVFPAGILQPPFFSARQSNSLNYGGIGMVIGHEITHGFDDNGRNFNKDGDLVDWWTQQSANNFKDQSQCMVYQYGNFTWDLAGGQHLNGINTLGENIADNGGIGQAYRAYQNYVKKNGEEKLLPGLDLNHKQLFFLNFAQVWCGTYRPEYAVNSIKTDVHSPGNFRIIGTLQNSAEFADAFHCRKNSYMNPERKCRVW
Method: The in vitro neutral endopeptidase activity is determined using a fluorometric assay procedure. The assay is based upon the cleavage of the fluorescent dansylated tripeptide Dns-Gly-Phe-Arg to form Dns-Gly. The latter is extracted from the acidified mixture by ethyl acetate and is strongly fluorescent.
The incubation mixture employed for the assay contains the substance Dns-Gly-Phe-Arg (0.5 mM), tris(hydroxymethyl)aminomethane -HCl buffer (pH 7.5, 50 mM), an enzyme preparation in 0.05% Triton X-100, and water or inhibitor diluted to a final volume of 0.25 ml. The enzyme preparation is purified from rat kidney according to the procedure described by Almenoff et al. in Biochemistry Vol. 22, p. 590-599 (1983). The inhibitor is preincubated for 10 minutes with the enzyme preparation and buffer before the reaction is initiated by the addition of the substrate. Incubation is carried out at 37° for 30 minutes and the reaction is stopped by the addition of 0.25 ml. 1N HCl and extraction of the Dns-Gly product into 1.5 ml. of ethyl acetate. Relative fluorescent intensity (RFI) of the ethyl acetate extract is measured using a Ferrand Spectofluorometer at excitation and emission wavelengths of 342 and 508 nm., respectively, corrected for the RFI of a zero-time control, and compared with assays lacking inhibitor.
Runs are made at different concentrations of test compound and by use of a mathematical model the IC50 is determined. The IC50 is the concentration of test compound that inhibits activity of the enzyme by 50%.
`O=C(N[C@@H](Cc1ccccc1)C(=O)O)C(CS)Cc1ccccc1` (single isomer, unassigned; isomer a) [Example 31, N-[2,(Mercaptomethyl)-1-oxo-3-phenylpropyl]-L-phenylalanine (isomer A)] showed an IC50 of 0.0053 µM. In the case of `O=C(O)C[C@H](Cc1ccccc1)NC(=O)C(CS)Cc1ccccc1` (single isomer, unassigned; isomer a) [Example 47], the IC50 is reported as 0.018 µM. `CC(C)CC(CS)C(=O)N[C@@H](C)C(=O)N[C@@H](CCCN=C(N)N)C(=O)O` (single isomer, unassigned; isomer a) [Example 56, N-[N-[2-(Mercaptomethyl)-4-methyl-1-oxopentyl]-L-alanyl]-L-arginine (isomer A)] was tested, and the IC50 was 0.023 µM. Work on `CC(C)C[C@H](NC(=O)[C@H](Cc1ccccc1)NC(=O)[C@@H]1CCCC[C@H]1S)C(=O)O` (single isomer, unassigned; isomer a) [Example 68, (trans)-N-[N-[(2-Mercaptocyclohexyl)carbonyl]-L-phenylalanyl]-L-leucine (isomer A)] yielded an IC50 of 1.2 µM. Work on `CC(C)CC(CS)C(=O)N[C@@H](C)C(=O)O` (single isomer, unassigned; isomer b) [Example 13, N-[2-(Mercaptomethyl)-4-methyl-1-oxopentyl]-L-alanine (isomer B)] yielded an IC50 of 0.0022 µM. For `CCCC[C@H](NC(=O)C(CS)Cc1ccccc1)C(=O)O` (single isomer, unassigned; isomer b) [Example 30, N-[2,(Mercaptomethyl)-1-oxo,3-phenylpropyl]-L-norleucine (isomer B)], the IC50 was 0.02 µM. Compound `O=C(N[C@@H](Cc1ccccc1)C(=O)O)C(CS)Cc1ccccc1` (single isomer, unassigned; isomer b) [Example 32, N-[2-(Mercaptomethyl-1-oxo-3-phenylpropyl]-L-phenylalanine (isomer B)] has an IC50 of 0.0089 µM. `O=C(O)C[C@H](Cc1ccccc1)NC(=O)C(CS)Cc1ccccc1` (single isomer, unassigned; isomer b) [Example 48] showed an IC50 of 0.052 µM. Compound `CC(C)CC(CS)C(=O)N[C@@H](C)C(=O)N[C@@H](CCCN=C(N)N)C(=O)O` (single isomer, unassigned; isomer b) [Example 57, N-[N-[2-(Mercaptomethlyl)-4-methyl-1-oxopentyl]-L-alanyl]-L-arginine (isomer B)] has an IC50 of 0.028 µM. In the case of `O=C(CCS)N[C@@H](Cc1ccccc1)C(=O)O` [Example 2, N-(3-Mercapto-1-oxopropyl)-L-phenylalanine], the IC50 is reported as 0.38 µM. `C[C@H](CS)C(=O)N[C@@H](Cc1ccc(O)c(O)c1)C(=O)O` [Example 14, 3-Hydroxy-N-(D-3-mercapto-2-methyl-1-oxopropyl)-L-tyrosine] was tested, and the IC50 was 0.091 µM. Work on `C[C@@H](CS)C(=O)N[C@@H](Cc1ccc(O)c(O)c1)C(=O)O` [Example 15, 3-Hydroxy-N-(R-3-mercapto-2-methyl-1-oxopropyl)-L-tyrosine] yielded an IC50 of 0.03 µM. Compound `CC(C)C[C@H](NC(=O)[C@H](C)CS)C(=O)O` [Example 40, (S),N-(3-Mercapto-2-methyl-1-oxopropyl)-L-leucine] has an IC50 of 0.19 µM. With `C[C@H](CS)C(=O)N[C@H](C(=O)O)[C@@H](C)O` [Example 41, (S)-N-(3-Mercapto-2-methyl-1-oxopropyl)-L-threonine] the IC50 was 0.73 µM. `C[C@H](CS)C(=O)N[C@@H](CC(=O)O)C(=O)O` [Example 42, (S)-N-(3-Mercapto-2-methyl-1-oxopropyl)-L-aspartic acid] showed an IC50 of 0.036 µM. For `CC[C@H](C)[C@H](NC(=O)[C@H](C)CS)C(=O)O` [Example 43, (S)-N-(3-Mercapto-2-methyl-1-oxopropyl)-L-isoleucine], the IC50 was 0.064 µM. In the case of `C[C@H](CS)C(=O)N[C@@H](CC(N)=O)C(=O)O` [Example 44, (S)-N^2-(3-Mercapto-2-methyl-1-oxopropyl)-L-asparagine], the IC50 is reported as 0.22 µM. Compound `O=C(O)CCCCCCCNC(=O)C(CS)Cc1ccccc1` (stereo not shown) [Example 51, 8-[[2-(Mercaptomethyl)-1-oxo-3-phenylpropyl]amino]-octanoic acid] has an IC50 of 0.02 µM. Work on `C[C@H](NC(=O)[C@H](Cc1ccccc1)NC(=O)CS)C(=O)O` [Example 60, N-[N-(Mercaptoacetyl)-L-phenylalanyl]-L-alanine] yielded an IC50 of 0.031 µM. `O=C(CS)N[C@@H](Cc1ccccc1)C(=O)N[C@@H](Cc1ccccc1)C(=O)O` [Example 61, N-[N-(Mercaptoacetyl)-L-phenylalanyl]-L-phenylalanine] showed an IC50 of 0.12 µM. Compound `O=C(CCS)N[C@@H](Cc1ccccc1)C(=O)N[C@@H](Cc1ccccc1)C(=O)O` [Example 62, N-[N-(3-Mercapto-1-oxopropyl)-L-phenylalanyl]-L-phenylalanine] ([Mpa]-Phe-Phe-OH) has an IC50 of 0.74 µM. Compound `CC(C)C[C@H](NC(=O)CS)C(=O)NCC(=O)O` [Example 63, N-[N-(Mercaptoacetyl)-L-leucyl]glycine] has an IC50 of 0.31 µM. `C[C@H](NC(=O)[C@H](S)Cc1ccccc1)C(=O)N1CCC[C@H]1C(=O)O` [Example 65] showed an IC50 of 0.062 µM. In the case of `O=C(O)CC(=O)NC(CS)Cc1ccccc1` (stereo not shown) [Example 69, 3-[[1-(Mercaptomethyl)-2-phenylethyl]amino]-3-oxo-propanoic acid], the IC50 is reported as 0.012 µM. With `O=C(O)CCCCC(=O)NC(CS)Cc1ccccc1` (stereo not shown) [Example 70, 6-[[1-(Mercaptomethyl)-2-phenylethyl]amino]-6-oxohexanoic acid] the IC50 was 0.0031 µM. Compound `O=C(O)CCCCCCC(=O)NC(CS)Cc1ccccc1` (stereo not shown) [Example 71, 8-[[1-(MercaDtomethyl)-2-phenylethyl]amino]-8-oxooctanoic acid] has an IC50 of 0.014 µM. For `CC(C)C[C@H](NC(=O)C(Cc1ccccc1)CP(C)(=O)O)C(=O)O` (stereo partly drawn) [Example 74, N-[2-[(hydroxymethylphosphinyl)methyl]-1-oxo-3-phenylpropyl]-L-leucine, dilithium salt], the IC50 was 0.95 µM. `O=C(O)CCNC(=O)C(Cc1ccccc1)CP(=O)(O)O` (stereo not shown) [Example 75, 3-[[1-Oxo-2-(phenylmethyl)-3-phosphonopropyl]amino]propanoic acid] was tested, and the IC50 was 0.04 µM. In the case of `CC(C)C[C@H](NC(=O)[C@H](Cc1ccccc1)OP(=O)(O)CCc1ccccc1)C(=O)O` [Example 77, N-[(S)-2-[[Hydroxy(2-phenylethy1)phosphinyl]oxy]-1-oxo-3-phenylpropyl]-L-leucine, dilithium salt], the IC50 is reported as 2.2 µM. With `O=C(O)CCNC(=O)[C@H](Cc1ccccc1)N[C@@H](Cc1ccccc1)C(=O)O` [Example 78, 3-[[N-[(S)-1-Carboxy-2-phenylethyl]-L-phenylalanyl]-amino]propanoic acid] the IC50 was 0.013 µM. Work on `O=C(O)CCCCCCNC(=O)[C@H](Cc1ccccc1)N[C@@H](Cc1ccccc1)C(=O)O` [Example 79, 7-[[N-[(S)-l-Carboxy-2-phenylethyl]-L-phenylalanyl]amino]heptanoic acid] yielded an IC50 of 0.94 µM. With `CC(C)C[C@H](NC(=O)[C@H](Cc1ccccc1)N[C@@H](Cc1ccccc1)C(=O)O)C(=O)O` [Example 80, N-[N-[(S)-l-Carboxy-2-phenylethyl]-L-phenylalanyl]-L-leucine] the IC50 was 0.33 µM. In the case of `N=C(N)NCCC[C@H](NC(=O)CNC(=O)C(CS)Cc1ccccc1)C(=O)O` (stereo partly drawn) [Example 82, N-[N-[2-(Mercaptomethyl)-1-oxo-3-phenylpropyl]glycyl]-L-arginine], the IC50 is reported as 0.015 µM. For `CC(C)[C@H](NC(=O)CS)C(=O)N[C@@H](Cc1c[nH]c2ccccc12)C(=O)O` [lithium salt], the IC50 was 0.68 µM.
